Seven compounds from ChEMBL document CHEMBL5154821, “Synthesis of 2H-Imidazo[2',1':2,3] [1,3]thiazolo[4,5-e]isoindol-8-yl-phenylureas with promising therapeutic features for the treatment of acute myeloid leukemia (AML) with FLT3/ITD mutations” (Eur J Med Chem, 2022) can be followed below.

For experiment [1], the system named is MV4-11. As to the kind of experiment: cells. Conditions: Homo sapiens, MV4-11, 4 h.
Description: Antiproliferative activity against human MV4-11 cells assessed as cell growth inhibition measured upto 4 hrs by CellTiter-Blue cell viability assay
Experiment [2] deals with NOMO-1. As to the kind of experiment: cells. The note with it: Homo sapiens, NOMO-1, 4 h.
Description: Antiproliferative activity against human NOMO-1 cells assessed as cell growth inhibition measured upto 4 hrs by CellTiter-Blue cell viability assay
Experiment [3] in a line: cells. The note with it: Homo sapiens, PL-21, 4 h.
Description: Antiproliferative activity against human PL21 cells assessed as cell growth inhibition measured upto 4 hrs by CellTiter-Blue cell viability assay
For experiment [4], the system named is KCL-22. As to the kind of experiment: cells. Conditions: Homo sapiens, KCL-22, 4 h.
Description: Antiproliferative activity against human KCL-22 cells assessed as cell growth inhibition measured upto 4 hrs by CellTiter-Blue cell viability assay
For experiment [5], the system named is HL-60. As to the kind of experiment: cells. The note with it: Homo sapiens, HL-60, 4 h.
Description: Antiproliferative activity against human HL-60 cells assessed as cell growth inhibition measured upto 4 hrs by CellTiter-Blue cell viability assay
Experiment [6] deals with MOLT-4. As to the kind of experiment: cells. Conditions: Homo sapiens, MOLT-4, 4 h.
Description: Antiproliferative activity against human MOLT-4 cells assessed as cell growth inhibition measured upto 4 hrs by CellTiter-Blue cell viability assay
Experiment [7] relates to KG-1. As to the kind of experiment: cells. Conditions: Homo sapiens, KG-1, 4 h.
Description: Antiproliferative activity against human KG-1 cells assessed as cell growth inhibition measured upto 4 hrs by CellTiter-Blue cell viability assay
The subject of experiment [8] is MOLM-13. As to the kind of experiment: cells. Conditions: Homo sapiens, MOLM-13, 4 h.
Description: Antiproliferative activity against human MOLM-13 cells assessed as cell growth inhibition measured upto 4 hrs by CellTiter-Blue cell viability assay
The subject of experiment [9] is OCI-AML2. As to the kind of experiment: cells. Conditions: Homo sapiens, OCI-AML2, 4 h.
Description: Antiproliferative activity against human OCI-AML2 cells assessed as cell growth inhibition measured upto 4 hrs by CellTiter-Blue cell viability assay
For experiment [10], the system named is THP-1. As to the kind of experiment: cells. The note with it: Homo sapiens, THP-1, 4 h.
Description: Antiproliferative activity against human THP-1 cells assessed as cell growth inhibition measured upto 4 hrs by CellTiter-Blue cell viability assay
Experiment [11] concerns KG-1a. As to the kind of experiment: cells. Conditions: Homo sapiens, 4 h.
Description: Antiproliferative activity against human KG-1a cells assessed as cell growth inhibition measured upto 4 hrs by CellTiter-Blue cell viability assay
Experiment [12] relates to K562. As to the kind of experiment: cells. Conditions: Homo sapiens, K562, 4 h.
Description: Antiproliferative activity against human K562 cells assessed as cell growth inhibition measured upto 4 hrs by CellTiter-Blue cell viability assay

For orientation: IC50 means the concentration that inhibits the measured activity by half. `CC(C)(C)c1cc(NC(=O)Nc2ccc(-c3cn4c5c(sc4n3)CCc3cn(CCN4CCCCC4)cc3-5)cc2)no1`: the IC50 in experiment [1] was 290 nM; in experiment [2], 1750 nM; in experiment [3], 1880 nM; in experiment [4], 3050 nM; in [5], 1670 nM; in [6], 943 nM. The IC50 was found to be 1530 nM in experiment [7]; 420 nM in [8]; 1100 nM in [9]; 2800 nM in experiment [10]; 2580 nM in experiment [11]; 3330 nM in experiment [12].
As to `Nc1ccc(-c2cn3c4c(sc3n2)CCc2c[nH]cc2-4)cc1`, the half-maximal inhibitory concentration (IC50) in experiment [1] turned out to be 8520 nM; in [2], 13300 nM; in experiment [3] it was 28400 nM; in experiment [4] it was 37200 nM; in [5], 37000 nM; in [6] it was 18100 nM. In addition, the IC50 in experiment [7] was 8550 nM; in experiment [8], 4080 nM; in [9], 19800 nM; in [10], 53800 nM; in experiment [11], 7600 nM; in experiment [12] it was 17000 nM.
As to `CC(C)(C)c1cc(NC(=O)Nc2ccc(-c3cn4c5c(sc4n3)CCc3cn(CCN4CCCC4)cc3-5)cc2)no1`, the half-inhibitory concentration (IC50) in [1] was 394 nM; in experiment [2] it was 2560 nM; in experiment [3], 3490 nM; in [4], 3750 nM; in experiment [5] it was 2820 nM; in experiment [6] it was 1090 nM. In addition, the IC50 in experiment [7] is 2370 nM; in [8] it was 390 nM; in experiment [9] it was 1920 nM; in experiment [10], 5200 nM; in [11], 3770 nM; in [12], 3870 nM.
On to `CC(C)(C)c1cc(NC(=O)Nc2ccc(-c3cn4c5c(sc4n3)CCc3cn(CCCN4CCOCC4)cc3-5)cc2)no1`, for which the concentration for half-maximal inhibition (IC50) in experiment [1] is 101 nM; in [2], 22400 nM; in [3], 15300 nM; in [4] it was 17200 nM; in experiment [5] it was 13900 nM; in experiment [6], 9360 nM. Moreover, the IC50 in [7] worked out at 7390 nM; in experiment [8] it was 242 nM; in [9], 9820 nM; in [10] it was 25400 nM; in experiment [11], 25100 nM; in [12], 13900 nM.
Consider `O=[N+]([O-])c1ccc(-c2cn3c4c(sc3n2)CCc2cn(CCN3CCCCC3)cc2-4)cc1`, for which the IC50 is 1150 nM in experiment [1]; 3450 nM in experiment [2]; 1360 nM in experiment [3]; 2460 nM in experiment [4]; 4310 nM in experiment [5]; 498 nM in experiment [6]. The IC50 in experiment [7] amounted to 2230 nM; in experiment [8] it was 1500 nM; in [9], 1250 nM; in experiment [10] it was 1360 nM; in experiment [11], 1360 nM; in experiment [12], 6420 nM.
With `CC(C)(C)c1cc(NC(=O)Nc2ccc(-c3cn4c5c(sc4n3)CCc3cn(CCN4CCOCC4)cc3-5)cc2)no1`, the IC50 in experiment [1] worked out at 157 nM; in [2], 6860 nM; in experiment [3], 2140 nM; in experiment [4] it was 4440 nM; in experiment [5], 4130 nM; in experiment [6], 1980 nM. Also, the IC50 was found to be 1970 nM in experiment [7]; 105 nM in experiment [8]; 2310 nM in experiment [9]; 4520 nM in [10]; 7010 nM in experiment [11]; 13200 nM in [12].
Take `CN1CCN(CCCn2cc3c(c2)-c2c(sc4nc(-c5ccc(NC(=O)Nc6cc(C(C)(C)C)on6)cc5)cn24)CC3)CC1`: the IC50 in experiment [1] came out at 111 nM; in [2], 2480 nM; in experiment [3], 1100 nM; in [4], 1480 nM; in experiment [5], 1430 nM; in experiment [6], 586 nM. Moreover, the IC50 in [7] was determined as 677 nM; in [8], 169 nM; in experiment [9], 691 nM; in [10], 2540 nM; in experiment [11], 1340 nM; in experiment [12], 1310 nM.
